Assays:
[1] = test system: human neuronal line SH-SY5Y; assay: Neuroprotection against okadaic acid-induced tau hyperphosphorylation (MTT); assay type: cell-based; settings: compounds 1, 5 and 10 μM pre-incubated 1 hour, OA 30 nM 24 hours
Experimental: The neuroprotective potential of the compounds was evaluated in an okadaic acid (OA)-induced neurodegeneration cell model. OA is an inhibitor of phosphatase 1 and 2 and is normally used to induce tau hyperphosphorylation in different cell lines. In this case, the human neuronal line SH-SY5Y is used. The cells are cultured in DMEM medium supplemented with 10% FBS and 1% penicillin/streptomycin at 37° C. and in an incubator with 5% CO2. The SH-SY5Y cells are sown on a 96-well plate at a density of 60,000 cells per well for 48 hours. After this time period, the cells are pre-incubated with the compounds to be studied at a concentration of 1, 5 and 10 μM for 1 hour. After that time period, OA is added at a concentration of 30 nM, letting the plate incubate for a further 24 hours. Next, the cells were incubated with an MTT solution at 0.5 mg·mL^−1 for at least 4 hours at 37° C. and 5% CO2. Next, the culture medium is removed and the formazan crystals joined to the base of the plate are dissolved with 200 μL of DMSO. Lastly, UV absorbance was measured at 595 nm in a plate reader (Varioskan Flash Microplate reader, Thermo Scientific).

[2] = biological target: LRRK2 G2019S (Homo sapiens (Human), UniProt Q5S007, G2019S); assay: Inhibition of LRRK2 G2019S (Adapta kinase assay); assay type: biochemical; settings: Adapta method, 60 min kinase reaction
Experimental: (§1) The compounds were evaluated in LRRK2 and in the mutated form LRRK2 G2019S. This mutation is more frequent in the familial forms of Parkinson's Disease and has a significant increase in kinase activity. The experimental determination of the inhibition of both enzymes was carried out using the Adapta® method, which is an evaluation method of fluorescent kinase activity that determines ADP in a highly sensitive manner. The methodology can be divided into two stages: kinase reaction and ADP determination. In the first stage, all the components for the kinase reaction are added to the well and incubated for 60 min. After the reaction, the ADP detection solution which contains a Europium-labeled anti-ADP antibody (Alexa Fluor® 647 labeled ADP tracer) and EDTA, to stop the kinase reaction, are added to the reaction well. The ADP formed in the kinase reaction without inhibitor will displace the Alexa Fluor® 647 labeled ADP tracer of the antibody, resulting in the TR-FRET signal decrease.
(§2) The assay is performed in 384-well plates. Adding 100 nL of the solution with the compound to be evaluated in 1% DMSO, 2.4 μL of HEPES solution, 2.5 μL of ATP solution, […] of substrate solution. The 10 μl of the kinase reaction contain: […] LRRK2 and 200 μM ERM (LRRKtide) in 25 mM Tris/7.5 mM HEPES pH 8.2, 0.005% BRIJ-35, 5 mM MgCl2, 0.5 mM EGTA, 0.01% NaN3 or 3-12 ng LRRK2 G2019S and 200 μM ERM (LRRKtide) in 25 mM Tris/7.5 mM HEPES pH 8.2, 0.005% BRIJ-35, 5 mM MgCl2, 0.5 mM EGTA, 0.01% NaN3. The plate is stirred for 30 s on a stirring plate and centrifuged for 1 min in a centrifuge at 1,000×g. The reaction is incubated at room temperature for 60 min. After this time period, 5 μL of the detection mixture is added, the plate is stirred for 30 s on a stirring plate and centrifuged for 1 min at 1,000×g. Fluorescence is determined in a plate reader and the data are analysed.

[3] = biological target: LRRK2 (Homo sapiens (Human), UniProt Q5S007); assay: Inhibition of LRRK2 (Adapta kinase assay); assay type: biochemical; settings: Adapta method, 60 min kinase reaction
Experimental: as §1, §2

[4] = in vitro; settings: PAMPA; for Pe (10−6 cm s−1) / Papp at 2.5 h: pig, pH 7.4; for Pe (10−6 cm s−1): 2.5 h
Text: The above-referenced commercial compounds, phosphate buffer at pH=7.4 (PBS), Ethanol and dodecane were obtained from the commercial houses Sigma, Acros organics, Merck, Aldrich and Fluka, respectively. […] To filter the samples, PVDF membrane filters were used (30 mm diameter, 0.45 μm pore size) from the company Symta. The equipment used to measure UV absorbance in 96-well plates was a Thermoscientific Multiskan spectrum.
Ten reference compounds were selected, whose blood-brain barrier passage is known, in order to validate the experiment. […] The solutions were filtered. Next, 180 μL of a PBS/EtOH (70/30) solution were added to each well of the acceptor plate. The donor plate was impregnated with 4 μL of a pig brain lipid solution dissolved in dodecane (20 mg mL^−1). After 5 minutes, 180 μL of solution of each compound were added on this plate. Of the compounds whose penetration in the central nervous system is being evaluated, between 1-2 mg were taken and dissolved in 1,500 μL of EtOH and 3,500 μL of PBS phosphate buffer (pH=7.4), filtered and added to the 96-well donor plate. Next, the donor plate was placed on top of the acceptor plate forming a kind of “sandwich” and left to incubate for 2 h and 30 min at 25° C. The passive transport compounds pass from the donor plate through the pig brain lipid to the acceptor plate. After 2 h and 30 min, the donor plate is carefully removed. The concentration and absorbance of both the commercial compounds and the synthesised derivatives that were evaluated in the acceptor and donor plates were determined using a UV absorbance reader. Each sample was analysed at 2 to 5 wavelengths, in at least three wells and in two independent experiments. […] Ten reference commercial compounds whose penetration in the central nervous system is known were used in each experiment in order to validate the method.

Chain of LRRK2 G2019S (Q5S007 whole entry G2019S): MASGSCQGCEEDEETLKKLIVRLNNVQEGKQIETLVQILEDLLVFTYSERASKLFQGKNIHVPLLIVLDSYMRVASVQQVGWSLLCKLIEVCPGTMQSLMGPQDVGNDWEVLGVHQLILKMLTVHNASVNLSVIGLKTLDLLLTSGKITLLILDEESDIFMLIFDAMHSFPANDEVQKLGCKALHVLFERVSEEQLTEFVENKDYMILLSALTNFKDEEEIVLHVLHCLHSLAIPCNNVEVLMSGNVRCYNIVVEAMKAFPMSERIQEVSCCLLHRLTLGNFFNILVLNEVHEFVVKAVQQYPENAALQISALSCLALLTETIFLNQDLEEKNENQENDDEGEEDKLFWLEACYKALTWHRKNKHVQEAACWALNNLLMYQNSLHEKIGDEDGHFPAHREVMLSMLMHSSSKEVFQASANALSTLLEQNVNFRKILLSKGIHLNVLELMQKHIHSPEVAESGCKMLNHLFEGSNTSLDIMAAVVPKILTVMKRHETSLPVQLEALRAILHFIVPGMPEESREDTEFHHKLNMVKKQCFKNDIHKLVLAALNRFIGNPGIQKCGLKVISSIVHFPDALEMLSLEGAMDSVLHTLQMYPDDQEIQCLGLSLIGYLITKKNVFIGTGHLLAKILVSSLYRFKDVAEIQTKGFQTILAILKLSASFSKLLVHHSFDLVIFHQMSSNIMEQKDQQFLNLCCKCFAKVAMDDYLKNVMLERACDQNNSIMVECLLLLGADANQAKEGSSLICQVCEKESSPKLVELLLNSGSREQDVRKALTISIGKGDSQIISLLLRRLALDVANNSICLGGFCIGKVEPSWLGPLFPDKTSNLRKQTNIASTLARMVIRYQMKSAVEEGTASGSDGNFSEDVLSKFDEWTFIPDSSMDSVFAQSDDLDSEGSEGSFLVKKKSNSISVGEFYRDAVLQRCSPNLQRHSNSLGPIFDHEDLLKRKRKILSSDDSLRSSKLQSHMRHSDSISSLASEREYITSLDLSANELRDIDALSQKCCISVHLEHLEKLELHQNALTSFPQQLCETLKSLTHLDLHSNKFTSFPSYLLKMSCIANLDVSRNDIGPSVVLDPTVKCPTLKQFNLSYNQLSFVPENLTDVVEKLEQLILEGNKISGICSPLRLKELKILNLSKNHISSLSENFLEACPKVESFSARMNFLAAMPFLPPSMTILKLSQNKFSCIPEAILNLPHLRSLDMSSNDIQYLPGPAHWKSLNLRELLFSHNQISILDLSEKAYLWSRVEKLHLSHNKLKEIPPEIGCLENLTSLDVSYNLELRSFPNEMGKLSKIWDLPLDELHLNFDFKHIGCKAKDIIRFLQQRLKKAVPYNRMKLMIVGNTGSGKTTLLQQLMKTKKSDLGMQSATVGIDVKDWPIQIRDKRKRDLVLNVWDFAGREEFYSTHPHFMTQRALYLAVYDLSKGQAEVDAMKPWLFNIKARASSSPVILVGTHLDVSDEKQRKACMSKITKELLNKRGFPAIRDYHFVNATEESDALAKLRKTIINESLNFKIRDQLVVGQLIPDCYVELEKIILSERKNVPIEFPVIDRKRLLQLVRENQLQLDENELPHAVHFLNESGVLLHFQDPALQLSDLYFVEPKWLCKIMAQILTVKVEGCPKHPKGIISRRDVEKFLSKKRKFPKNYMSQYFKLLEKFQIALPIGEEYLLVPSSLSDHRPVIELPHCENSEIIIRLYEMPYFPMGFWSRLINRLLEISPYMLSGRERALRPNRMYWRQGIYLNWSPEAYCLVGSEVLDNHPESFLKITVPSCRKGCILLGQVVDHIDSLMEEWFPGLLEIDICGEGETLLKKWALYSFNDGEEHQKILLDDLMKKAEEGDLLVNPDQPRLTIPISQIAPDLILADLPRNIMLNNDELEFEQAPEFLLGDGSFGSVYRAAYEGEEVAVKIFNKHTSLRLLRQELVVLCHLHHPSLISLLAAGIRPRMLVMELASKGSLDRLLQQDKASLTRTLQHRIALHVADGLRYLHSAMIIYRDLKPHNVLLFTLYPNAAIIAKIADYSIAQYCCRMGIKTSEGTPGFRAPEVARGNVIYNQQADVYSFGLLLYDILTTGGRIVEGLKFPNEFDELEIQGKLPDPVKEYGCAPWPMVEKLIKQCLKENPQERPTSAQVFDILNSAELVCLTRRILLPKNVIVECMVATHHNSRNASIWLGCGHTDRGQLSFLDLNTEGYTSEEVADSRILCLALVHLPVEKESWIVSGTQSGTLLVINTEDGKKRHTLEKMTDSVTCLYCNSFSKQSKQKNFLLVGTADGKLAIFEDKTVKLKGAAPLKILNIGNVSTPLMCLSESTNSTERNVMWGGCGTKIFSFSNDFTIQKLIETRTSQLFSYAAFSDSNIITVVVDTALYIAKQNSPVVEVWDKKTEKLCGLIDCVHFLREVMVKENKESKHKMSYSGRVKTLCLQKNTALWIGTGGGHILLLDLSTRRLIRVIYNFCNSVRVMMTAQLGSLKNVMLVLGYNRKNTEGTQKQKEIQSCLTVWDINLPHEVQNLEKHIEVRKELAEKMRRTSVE
Chain of LRRK2 (Q5S007 whole entry): as the sequence (Q5S007 whole entry G2019S) above, with S2019G counted along it

SMILES	Neuroprotection against okadaic acid damage / tau hyperphosphorylation [1]	IC50 [2] [nM]	IC50 [3] [nM]	Blood-brain barrier penetration by passive diffusion [4]	Pe (10−6 cm s−1) [4]	Prediction of penetration in the central nervous system (CNS) [4]	Papp at 2.5 h [4] [×10⁻⁶ cm/s]
O=C(Nc1nc2ccccc2s1)c1ccc(N2CCOCC2)cc1 [Compound 1, N-(benzothiazole-2-yl)-4-morpholinobenzamide]	prevents the damage caused by the okadaic acid	360	696	capable of penetrating the blood-brain barrier by passive diffusion	13.4 ± 2.4 10−6 cm s−1		
COc1ccc2nc(NC(=O)c3ccc(N4CCOCC4)cc3)sc2c1 [Compound 2, N-(6-methoxybenzothiazole-2-yl)-4-morpholinobenzamide]	prevents the damage caused by the okadaic acid	108	368				
O=C(Nc1nc2ccc(C(F)(F)F)cc2s1)c1ccc(N2CCOCC2)cc1 [Compound 3, N-(6-trifluoromethylbenzothiazole-2-yl)-4-morpholinobenzamide]	prevents the damage caused by the okadaic acid	293	1060				
Cc1ccc2nc(NC(=O)c3ccc(N4CCOCC4)cc3)sc2c1 [Compound 4, N-(6-methylbenzothiazole-2-yl)-4-morpholinobenzamide]	prevents the damage caused by the okadaic acid	332	523	capable of penetrating the blood-brain barrier by passive diffusion	19.0 ± 2.6 10−6 cm s−1		
O=C(Nc1nc2ccc(Cl)cc2s1)c1ccc(N2CCOCC2)cc1 [Compound 5, N-(6-chlorobenzothiazole-2-yl)-4-morpholinobenzamide]	prevents the damage caused by the okadaic acid		777			CNS+/−	3.42 ± 1.26
O=C(Nc1nc2ccc(F)cc2s1)c1ccc(N2CCOCC2)cc1 [Compound 6, N-(6-fluorobenzothiazole-2-yl)-4-morpholinobenzamide]	prevents the damage caused by the okadaic acid	426	190	capable of penetrating the blood-brain barrier by passive diffusion	5.1 ± 0.1 10−6 cm s−1		
CCOc1ccc2nc(NC(=O)c3ccc(N4CCOCC4)cc3)sc2c1 [Compound 7, N-(6-ethoxybenzothiazole-2-yl)-4-morpholinobenzamide]	prevents the damage caused by the okadaic acid	158	308				
O=C(Nc1nc2ccc(Br)cc2s1)c1ccc(N2CCOCC2)cc1 [Compound 8, N-(6-bromobenzothiazole-2-yl)-4-morpholinobenzamide]	prevents the damage caused by the okadaic acid	1380	474				
CCCOc1ccc2nc(NC(=O)c3ccc(N4CCOCC4)cc3)sc2c1 [Compound 9, N-(6-propoxybenzothiazole-2-yl)-4-morpholinobenzamide]	prevents the damage caused by the okadaic acid	1190	4000				4.28 ± 3.45
CC(C)c1ccc2nc(NC(=O)c3ccc(N4CCOCC4)cc3)sc2c1 [Compound 10, N-(6-isopropylbenzothiazole-2-yl)-4-morpholinobenzamide]	prevents the damage caused by the okadaic acid	1170	1950				4.27 ± 2.7
CN1C(C(=O)Nc2ccccn2)=C(O)c2ccccc2S1(=O)=O [Piroxicam, reference compound]					0.6 ± 0.2 10−6 cm s−1		
CN(C)CCCN1c2ccccc2Sc2ccccc21 [Promazine, reference compound]					9.8 ± 0.5 10−6 cm s−1		
